Bridge positions count the residues as written; N and C are the ends. Peptide text beside a SMILES is read from it.
How the values were obtained:
B. cinerea [1] = type: cell-based, Botrytis cinerea; conditions: B. cinerea; for Minimal Inhibitory Concentration (MIC): resazurin assay in SFM, ~10^5 spores/mL, resazurin added after 48 h, three biological replicates
Experimental: (§1) B. cinerea strain T4 was cultured in V8 medium for 3 weeks at 25°C. Fungal spores were collected by flooding the fungal growth plates with water and scraped using a sterile spreader. The spore suspension was filtered through two layers of Miracloth, followed by centrifugation at 12,000 g for 2 minutes (min) and subsequently washed twice with sterile water. Lastly, fungal spores were resuspended in Synthetic Fungal Media (SFM). The spore suspension was adjusted to the desired spore density of about 10^5 spores/mL using a hemocytometer. Fusarium virguliforme (F. virguliforme) was grown and maintained regularly in potato dextrose agar (PDA) (Difco Laboratories) medium. Two weeks old F. virguliforme plates were used to collect spores as described above for B. cinerea followed by centrifugation and washing steps. Spores were counted using a hemocytometer and adjusted to the final concentration of 10^5 spores/mL in 2X SFM media. Sclerotinia sclerotiorum obtained from the field of pennycress in Illinois was grown on PDA medium at room temperature.
The antifungal activity of NCR13 against fungal pathogens was determined using the resazurin cell viability assay, as described previously. Briefly, 45 μL of each peptide dilution (0, 0.09, 0.1875, 0.375, 0.75, 1.5, 3, and 6 μM) was added to each well of the microtiter plate containing 45 μL (~10^5 spores/mL) of spore suspension. Three biological replicates were used for each treatment and the experiments were repeated three times. Resazurin at 0.1% (w/v) was added to each well after incubation for 48 h. Images were taken at ~24 h. The Minimum Inhibitory Concentration (MIC) for each peptide denotes the lowest concentration at which the peptide halts the growth of fungus evident through a lack of color change from blue to […]. The in vitro antifungal activity of NCR13_PFVs against S. sclerotiorum was determined using a 24-well plate assay as previously described. Mycelial plugs (1 mm in diameter) cut from the growing edge of the two day-old actively growing colony were transferred from PDA media to a series of wells containing 250 μL of SFM.

Fusarium virguliforme = assay: In vitro antifungal assay, resazurin cell viability (MIC); type: cell-based; conditions: resazurin assay in SFM, ~10^5 spores/mL
Experimental: as §1
(§2) The antifungal activity of NCR13 against fungal pathogens was determined using the resazurin cell viability assay, as described previously. […] The in vitro antifungal activity of NCR13_PFVs against S. sclerotiorum was determined using a 24-well plate assay as previously described. […]

Sclerotinia sclerotiorum = assay: In vitro antifungal assay, 24-well plate with mycelial plugs (MIC); type: cell-based; conditions: mycelial plugs in 250 μL SFM
Experimental: as §1, §2

B. cinerea [2] = type: in vivo, Botrytis cinerea on tomato (Solanum lycopersicum); conditions: 3 μM peptide sprayed on pre-inoculated four-week-old tomato plants; 5 leaves per plant, 4 plants
Experimental: To test the curative antifungal activity of peptides against B. cinerea, 4-week-old pepper and tomato plants were used. Plants were first sprayed with 1 mL of B. cinerea spores (about 5 × 10^4) suspended in SFM. After 8 h of B. cinerea challenge, 2 mL of NCR13_PFV1 or NCR13_PFV2 (3.0 and 1.5 μM) were sprayed per plant. Control plants were sprayed with 2 mL of water. All plants were placed in a high humid environment for 72 h. Plants were imaged at 72 h after infection in white light and high-resolution fluorescence images were taken using CropReporter (PhenoVation). The quantification of plant health was carried out using the calculated Fv/Fm (maximum quantum yield of photosystem II) images of CropReporter showing the efficiency of photosynthesis in false colors.
For the curative assay using pepper and tomato plants, pictures of whole plants and detached leaves were taken as described above. […] Four plants were used per treatment and for each plant the disease was assessed per leaf. Besides disease severity (DS), the inhibition of disease by treatment was also evaluated. […]

trypsin = conditions: 20-fold less (in mass) trypsin, room temperature, 1 h, read-out mass spectrometry

CC[C@H](C)[C@@H]1NC(=O)[C@@H]2CSSC[C@H](NC(=O)[C@@H]3CCCN3C(=O)[C@H](CCCCN)NC(=O)[C@@H](NC(=O)[C@H](C)N)[C@@H](C)O)C(=O)N[C@@H](CCC(N)=O)C(=O)N[C@@H](CO)C(=O)N[C@@H](CC(=O)O)C(=O)N[C@@H](CCCCN)C(=O)N[C@@H](CC(=O)O)C(=O)N[C@H]3CSSC[C@H](NC(=O)[C@H](Cc4ccccc4)NC(=O)CNC(=O)[C@H](CC(N)=O)NC1=O)C(=O)N[C@@H](CCCCN)C(=O)N[C@H](C(=O)N[C@H](C(=O)N[C@@H](CCCNC(=N)N)C(=O)O)C(C)C)CSSC[C@H](NC(=O)[C@H](C)NC(=O)[C@H](Cc1ccccc1)NC(=O)[C@H](CCCCN)NC(=O)[C@H](CCCCN)NC3=O)C(=O)N[C@@H](CCCNC(=N)N)C(=O)N[C@@H](CCCCN)C(=O)N1CCC[C@H]1C(=O)N[C@@H](CCCCN)C(=O)N[C@@H](C(C)C)C(=O)N1CCC[C@H]1C(=O)N[C@@H](CCCCN)C(=O)N2 [NCR13_PFV1] (H-ATKPCQSDKDCKKFACRKPKVPKCINGFCKCVR-OH; disulfide 5-24, 11-29, 16-31)
Minimal Inhibitory Concentration (MIC) (B. cinerea [1]): 0.09 µM | MIC in SFM+100 mM NaCl (B. cinerea [1]; synthetic fungal medium plus 100 mM NaCl): > 12 µM | Minimal Inhibitory Concentration (MIC) (Fusarium virguliforme): 0.09 µM | Minimal Inhibitory Concentration (MIC) (Sclerotinia sclerotiorum): 6.0 µM | inhibition of gray mold disease, tomato (B. cinerea [2]): 90% | digestion by trypsin (trypsin): could not be digested by trypsin

CC[C@H](C)[C@@H]1NC(=O)[C@@H]2CSSC[C@H](NC(=O)[C@H](Cc3ccccc3)NC(=O)CNC(=O)[C@H](CC(N)=O)NC1=O)C(=O)N[C@@H](CCCCN)C(=O)N[C@H](C(=O)N[C@H](C(=O)N[C@@H](CCCNC(=N)N)C(=O)O)C(C)C)CSSC[C@H](NC(=O)[C@H](C)NC(=O)[C@H](Cc1ccccc1)NC(=O)[C@H](CCCCN)NC(=O)[C@H](CCCCN)NC(=O)[C@@H]1CSSC[C@H](NC(=O)[C@@H]3CCCN3C(=O)[C@H](CCCCN)NC(=O)[C@@H](NC(=O)[C@H](C)N)[C@@H](C)O)C(=O)N[C@@H](CCC(N)=O)C(=O)N[C@@H](CO)C(=O)N[C@@H](CC(=O)O)C(=O)N[C@@H](CCCCN)C(=O)N[C@@H](CC(=O)O)C(=O)N1)C(=O)N[C@@H](CCCNC(=N)N)C(=O)N[C@@H](CCCCN)C(=O)N1CCC[C@H]1C(=O)N[C@@H](CCCCN)C(=O)N[C@@H](C(C)C)C(=O)N1CCC[C@H]1C(=O)N[C@@H](CCCCN)C(=O)N2 [NCR13_PFV2] (H-ATKPCQSDKDCKKFACRKPKVPKCINGFCKCVR-OH; disulfide 5-11, 16-31, 24-29)
Minimal Inhibitory Concentration (MIC) (B. cinerea [1]): 1.5 µM | Minimal Inhibitory Concentration (MIC) (Fusarium virguliforme): 1.5 µM | Minimal Inhibitory Concentration (MIC) (Sclerotinia sclerotiorum): 24 µM | inhibition of gray mold disease, tomato (B. cinerea [2]): 40%

Reference: article PMC11637438, “Chickpea NCR13 disulfide cross-linking variants exhibit profound differences in antifungal activity and modes of action” (PLOS Pathogens, 2024)
